# Data from US8927559B2, “Quinazolinone-type compounds as CRTH2 antagonists” (Merck Sharp & Dohme Corp., priority 2010, dated 2015).
# Where “and” joins values, the source holds several entries; their conditions need not be identical. Identical values can stand only once.
# Molecular target: T1, CRTH2 receptor (hCRTH2) (Homo sapiens, UniProt Q9Y5Y4)
# T1 construct: expressed in transfected cells; host or cells: HEK cells (HEK-hCRTH2 cell line), membranes
# T1 sequence (Q9Y5Y4 1-395): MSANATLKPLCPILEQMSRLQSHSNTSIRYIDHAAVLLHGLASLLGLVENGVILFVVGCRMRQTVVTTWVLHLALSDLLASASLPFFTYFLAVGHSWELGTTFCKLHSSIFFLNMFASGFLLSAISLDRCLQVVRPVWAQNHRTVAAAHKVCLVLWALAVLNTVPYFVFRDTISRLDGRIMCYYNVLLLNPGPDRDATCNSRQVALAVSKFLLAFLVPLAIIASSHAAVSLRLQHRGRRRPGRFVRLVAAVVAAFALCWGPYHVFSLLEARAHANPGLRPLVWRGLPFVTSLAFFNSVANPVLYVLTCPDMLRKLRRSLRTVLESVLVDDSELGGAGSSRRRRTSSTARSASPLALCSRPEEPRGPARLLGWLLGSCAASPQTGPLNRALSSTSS
# Test: Radioligand binding assay ([3H]PGD2 competition, membranes of HEK-hCRTH2 cell line)
# Conditions: 3.0 nM [3H]PGD2, HEK-hCRTH2 membranes, 60 min, room temperature; read-out: Ki
# Description: Competing ligands were diluted in dimethylsulfoxide (Me2SO) that was kept constant at 1% (v/v) of the final incubation volume. The reaction was initiated by the addition of 8-20 μg of membrane protein prepared from a HEK-hCRTH2 cell line. Total and non-specific binding were determined in the absence and the presence of […] PGD2, respectively. […] The reaction was routinely conducted for 60 min at room temperature and terminated by rapid filtration through prewetted (0.3% polyethyleneimine) 96-well printed filtermate (Wallac) using a Tomtec harvester. After washing with cold buffer, the filter was dried for 2 minutes in microwave, and Meltilex Scintillator sheet (Wallac) was melted on for 2 min.
row,SMILES,Ki
1,"O=C(O)CCCCc1nc2cc(C3=NOC(c4nc5ccccc5o4)C3)ccc2c(=O)n1-c1ccc(F)cc1 (stereo not drawn) [Example 28, 5-(7-(5-(benzo[d]oxazol-2-yl)-4,5-dihydroisoxazol-3-yl)-3-(4-fluorophenyl)-4-oxo-3,4-dihydroquinazolin-2-yl)pentanoic acid]",≤ 10 nM
2,"O=C(O)CCCCc1nc2cc(-c3noc(Cc4ccc(F)cc4)n3)ccc2c(=O)n1-c1ccc(F)cc1 [Example 36, 5-(7-(5-(4-fluorobenzyl)-1,2,4-oxadiazol-3-yl)-3-(4-fluorophenyl)-4-oxo-3,4-dihydroquinazolin-2-yl)pentanoic acid]",≤ 10 nM
3,"O=C(O)CCCCc1nc2cc(-c3cc(CSc4nc5cc(OC(F)F)ccc5[nH]4)on3)ccc2c(=O)n1-c1ccc(F)cc1 [Example 39, 5-(7-(5-((5-(difluoromethoxy)-1H-benzo[d]imidazol-2-ylthio)methyl)isoxazol-3-yl)-3-(4-fluorophenyl)-4-oxo-3,4-dihydroquinazolin-2-yl)pentanoic acid]",10 to 50 nM
4,"O=C(O)CCCCc1nc2cc(-c3cc(CS(=O)(=O)c4nc5cc(OC(F)F)ccc5[nH]4)on3)ccc2c(=O)n1-c1ccc(F)cc1 [Example 39E, 5-(7-(5-((5-(difluoromethoxy)-1H-benzo[d]imidazol-2-ylsulfonyl)methyl)isoxazol-3-yl)-3-(4-fluorophenyl)-4-oxo-3,4-dihydroquinazolin-2-yl)pentanoic acid]",10 to 50 nM
5,O=C(O)CCCCc1nc2cc(-c3cc(CSc4ccc(F)cc4)on3)ccc2c(=O)n1-c1ccc(F)cc1 [Example 39F],≤ 10 nM
6,COc1ccc2[nH]c(SCc3cc(-c4ccc5c(=O)n(-c6ccc(F)cc6)c(CCCCC(=O)O)nc5c4)no3)nc2c1 [Example 39H],10 to 50 nM
7,O=C(O)CCCCc1nc2cc(-c3cc(CS(=O)(=O)c4nc5ccccc5[nH]4)on3)ccc2c(=O)n1-c1ccc(F)cc1 [Example 39L],≤ 10 nM
8,CC[C@@H](c1ccc(F)cc1)c1cc(-c2ccc3c(=O)n(-c4ccc(F)cc4)c(CCCCC(=O)O)nc3c2)no1 [Example 43D],≤ 10 nM
9,O=C(O)CCCCc1nc2cc(-c3cc(Cc4ccccc4)on3)ccc2c(=O)n1-c1ccc(F)cc1 [Example 100],≤ 10 nM
10,O=C(O)CCCCc1nc2cc(-c3cc(Cn4ccccc4=O)on3)ccc2c(=O)n1-c1ccc(F)cc1 [Example 107],≤ 10 nM
11,CC(CCCc1nc2cc(C3=NOC(C)([C@H](O)c4ccccc4)C3)ccc2c(=O)n1-c1ccc(F)cc1)C(=O)O (stereo partly drawn) [Example 109],10 to 50 nM
12,CC1(c2nc3ccccc3o2)CC(c2ccc3c(=O)n(-c4ccc(Cl)cc4)c(CCCCC(=O)O)nc3c2)=NO1 (stereo not drawn) [Example 116],≤ 10 nM
13,CC1(c2ccc(F)c(F)c2)CC(c2ccc3c(=O)n(-c4ccc(F)cc4)c(CCCCC(=O)O)nc3c2)=NO1 (stereo not drawn) [Example 124],≤ 10 nM
14,C=C(c1ccccc1)c1cc(-c2ccc3c(=O)n(-c4ccc(F)cc4)c(CCCCC(=O)O)nc3c2)no1 [Example 128],≤ 10 nM
15,CC(O)(c1cccc(F)c1)c1cc(-c2ccc3c(=O)n(-c4ccc(F)cc4)c(CCCCC(=O)O)nc3c2)no1 (stereo not drawn) [Example 130],≤ 10 nM

# More lines, now with the values ahead:
row,Ki,SMILES
1,≤ 10 nM,C[C@@]1(Cc2ccccc2)CC(c2ccc3c(=O)n(-c4ccccc4)c(CCCCC(=O)O)nc3c2)=NO1 [Example 26M]
2,10 to 50 nM,C[C@@]1([C@@H](O)c2ccccc2)CC(c2ccc3c(=O)n(-c4ccccc4)c(CCCCC(=O)O)nc3c2)=NO1 [Example 26i]
3,≤ 10 nM,O=C(O)CCCCc1nc2cc(-c3cc(-c4nc5ccccc5o4)on3)ccc2c(=O)n1-c1ccc(F)cc1 [Example 29]
4,10 to 50 nM and 22.1 nM,O=C(O)CCCCc1nc2cc(-c3cc(-c4ccccc4)no3)ccc2c(=O)n1-c1ccc(F)cc1 [Example 32]
5,≤ 10 nM,O=C(O)CCCCc1nc2cc(-c3cc(-c4ccc5ccccc5n4)on3)ccc2c(=O)n1-c1ccc(F)cc1 [Example 33]
6,≤ 10 nM,"O=C(O)CCCCc1nc2cc(C3=NOC[C@@H](c4ccc(F)cc4)N3)ccc2c(=O)n1-c1ccc(F)cc1 [Example 37, (R)-5-(3-(4-fluorophenyl)-7-(5-(4-fluorophenyl)-5,6-dihydro-4H-1,2,4-oxadiazin-3-yl)-4-oxo-3,4-dihydroquinazolin-2-yl)pentanoic acid]"
7,≤ 10 nM,O=C(O)CCCCc1nc2cc(C3=NOC[C@H](c4ccc(F)cc4)N3)ccc2c(=O)n1-c1ccc(F)cc1 [Example 37E]
8,10 to 50 nM,O=C(O)CCCCc1nc2cc(-c3cc(CSc4ccccn4)on3)ccc2c(=O)n1-c1ccc(F)cc1 [Example 39G]
9,10 to 50 nM,O=C(O)CCCCc1nc2cc(-c3cc(CS(=O)(=O)c4ccccn4)on3)ccc2c(=O)n1-c1ccc(F)cc1 [Example 39I]
10,≤ 10 nM,COc1ccc2[nH]c(S(=O)(=O)Cc3cc(-c4ccc5c(=O)n(-c6ccc(F)cc6)c(CCCCC(=O)O)nc5c4)no3)nc2c1 [Example 39J]
11,≤ 10 nM,O=C(O)CCCCc1nc2cc(-c3cc(CSc4nc5ccccc5[nH]4)on3)ccc2c(=O)n1-c1ccc(F)cc1 [Example 39K]
12,10 to 50 nM,"O=C(O)CCCCc1nc2cc(-c3cc(C[S+]([O-])c4nc5ccccc5[nH]4)on3)ccc2c(=O)n1-c1ccc(F)cc1 (stereo not drawn) [Example 40, 5-(7-(5-((1H-benzo[d]imidazol-2-ylsulfinyl)methyl)isoxazol-3-yl)-3-(4-fluorophenyl)-4-oxo-3,4-dihydroquinazolin-2-yl)pentanoic acid]"
13,≤ 10 nM,CCC1(c2ccccc2)CC(c2ccc3c(=O)n(-c4ccc(F)cc4)c(CCCCC(=O)O)nc3c2)=NO1 (stereo not drawn) [Example 41]
14,≤ 10 nM,"CC[C@H](c1ccc(F)cc1)c1cc(-c2ccc3c(=O)n(-c4ccc(F)cc4)c(CCCCC(=O)O)nc3c2)no1 [Example 43, (R)-5-(3-(4-fluorophenyl)-7-(5-(1-(4-fluorophenyl)propyl)isoxazol-3-yl)-4-oxo-3,4-dihydroquinazolin-2-yl)pentanoic acid]"
15,10 to 50 nM and 32.6 nM,C[C@@H](OCc1ccc(F)cc1)c1cc(-c2ccc3c(=O)n(-c4ccc(F)cc4)c(CCCCC(=O)O)nc3c2)no1 [Example 44]
16,≤ 10 nM,O=C(O)CCCCc1nc2cc(-c3cc([C@@H](O)c4ccccc4)on3)ccc2c(=O)n1-c1ccc(F)cc1 [Example 101]
17,≤ 10 nM,O=C(O)CCCCc1nc2cc(-c3cc([C@H](O)c4ccccc4)on3)ccc2c(=O)n1-c1ccc(F)cc1 [Example 102]
18,≤ 10 nM,Cc1ccccc1-c1cc(-c2ccc3c(=O)n(-c4ccc(F)cc4)c(CCCCC(=O)O)nc3c2)no1 [Example 103]
19,10 to 50 nM,O=C(O)CCCCc1nc2cc(-c3noc(-c4ccc(C(F)(F)F)cc4)n3)ccc2c(=O)n1-c1ccc(F)cc1 [Example 104]
20,≤ 10 nM,O=C(O)CCCCc1nc2cc(-c3cn(-c4ccc(F)cc4)nn3)ccc2c(=O)n1-c1ccc(F)cc1 [Example 105]
21,≤ 10 nM,O=C(O)CCCCc1nc2cc(-c3cc(CN4CCc5ccccc54)on3)ccc2c(=O)n1-c1ccc(F)cc1 [Example 106]
22,≤ 10 nM,CC(CCCc1nc2cc(C3=NOC(C)(c4nc5ccccc5o4)C3)ccc2c(=O)n1-c1ccc(F)cc1)C(=O)O (stereo not drawn) [Example 108]
23,10 to 50 nM,CC(CCCc1nc2cc(C3=NOC(C)([C@@H](O)c4ccccc4)C3)ccc2c(=O)n1-c1ccc(F)cc1)C(=O)O (stereo partly drawn) [Example 110]
24,≤ 10 nM,O=C(O)CCCCc1nc2cc(-c3cc(Cn4nnc5ccccc54)on3)ccc2c(=O)n1-c1ccc(F)cc1 [Example 111]
25,≤ 10 nM,N#CC1CC2(CC(c3ccc4c(=O)n(-c5ccc(F)cc5)c(CCCCC(=O)O)nc4c3)=NO2)C1 (stereo not drawn) [Example 112]
26,≤ 10 nM,CC1(c2ccc(C#N)cc2)CC(c2ccc3c(=O)n(-c4ccc(Cl)cc4)c(CCCCC(=O)O)nc3c2)=NO1 (stereo not drawn) [Example 113]
27,≤ 10 nM,CC1(c2ccc(C#N)cc2)CC(c2ccc3c(=O)n(-c4ccc(F)cc4)c(CCCCC(=O)O)nc3c2)=NO1 (stereo not drawn) [Example 114]
28,10 to 50 nM,O=C(O)CCCCc1nc2cc(C3=NOC(c4ccccc4)(C(F)(F)F)C3)ccc2c(=O)n1-c1ccc(F)cc1 (stereo not drawn) [Example 127]
29,≤ 10 nM,CC(O)(c1cc(-c2ccc3c(=O)n(-c4ccc(F)cc4)c(CCCCC(=O)O)nc3c2)no1)c1ccccc1F (stereo not drawn) [Example 129]

# Same assay, conditions: Ki, 3.0 nM [3H]PGD2, HEK-hCRTH2 membranes, 60 min, room temperature
row,SMILES,Ki
1,O=C(O)CCCCc1nc2cc(C3=NOC(c4ccccc4)(c4ccccc4)C3)ccc2c(=O)n1-c1ccc(F)cc1 [Example 117],10 to 50 nM
2,CC1(c2cccc(C#N)c2)CC(c2ccc3c(=O)n(-c4ccc(F)cc4)c(CCCCC(=O)O)nc3c2)=NO1 (stereo not drawn) [Example 118],10 to 50 nM
3,CC1(c2cccc(C#N)c2)CC(c2ccc3c(=O)n(-c4ccc(F)cc4)c(CCCCC(=O)O)nc3c2)=NO1 (stereo not drawn) [Example 119],≤ 10 nM
4,CC1(c2ccc(Cl)cc2)CC(c2ccc3c(=O)n(-c4ccc(F)cc4)c(CCCCC(=O)O)nc3c2)=NO1 (stereo not drawn) [Example 120],≤ 10 nM
5,CC1(c2ccc(F)cc2)CC(c2ccc3c(=O)n(-c4ccc(F)cc4)c(CCCCC(=O)O)nc3c2)=NO1 (stereo not drawn) [Example 122],≤ 10 nM
6,CC1(c2cc(F)cc(F)c2)CC(c2ccc3c(=O)n(-c4ccc(F)cc4)c(CCCCC(=O)O)nc3c2)=NO1 (stereo not drawn) [Example 125],≤ 10 nM
7,CC1(c2cc(F)cc(F)c2)CC(c2ccc3c(=O)n(-c4ccc(F)cc4)c(CCCCC(=O)O)nc3c2)=NO1 (stereo not drawn) [Example 126],10 to 50 nM
